{
  "source": "patent US20160279110A1",
  "about": "“COMPOSITIONS AND METHODS FOR TREATING CANCER” (UNIVERSITY OF ROCHESTER, priority 2015, published 2016)",
  "molecules": {"B1": {"name": "Active recombinant Caspase 3 (protein)", "chain": "SGISLDNSYKMDYPEMGLCIIINNKNFHKSTGMTSRSGTDVDAANLRETFRNLKYEVRNKNDLTREEIVELMRDVSKEDHSKRSSFVCVLLSHGEEGIIFGTNGPVDLKKITNFFRGDRCRSLTGKPKLFIIQACRGTELDCGIETDSGVDDDMACHKIPVEADFLYAYSTAPGYYSWRNSKDGSWFIQSLCAMLKQYADKLEFMHILTRVNRKVATEFESFSFDATFHAKKQIPCIVSMLTKELYFYH"}, "B2": {"name": "Active recombinant Caspase 7 (protein)", "chain": "AKPDRSSFVPSLFSKKKKNVTMRSIKTTRDRVPTYQYNMNFEKLGKCIIINNKNFDKVTGMGVRNGTDKDAEALFKCFRSLGFDVIVYNDCSCAKMQDLLKKASEEDHTNAACFACILLSHGEENVIYGKDGVTPIKDLTAHFRGDRCKTLLEKPKLFFIQACRGTELDDGIQADSGPINDTDANPRYKIPVEADFLFAYSTVPGYYSWRSPGRGSWFVQALCSILEEHGKDLEIMQILTRVNDRVARHFESQSDDPHFHEKKQIPCVVSMLTKELYFSQ"}},
  "key": {"UPF1 [1]": {"test_system": "UPF1", "experiment": "Western blot of UPF1 CP generation in HeLa cells", "type": "cell-based, human", "protocol": "[…] At least two apoptotic inducers were used for each cell line, and at least two cell lines were tested with each apoptotic inducer.\nUPF1 CP may result from cleavage of endogenous UPF1 or the transfected construct, but the use of anti-FLAG allows unambiguous assignment of UPF1-FLAG CP as derived from MYC-UPF1-FLAG. α, anti; h, hour(s). […] To serve as molecular weight standards for UPF1 CP, lysates of MCF7 cells transiently expressing a UPF1-FLAG protein encompassing the residues specified were also analyzed. […] The D37 cleavage site encompassing P4-P1 residues is boxed. […] Immunoblots are representative of at least 2 independent experiments.\n(§1) Cells were lysed, and protein was isolated using hypotonic buffer that consists of 10 mM Tris-C1, pH 7.4, 10 mM NaCl, 2 mM EDTA, 0.5% Triton X-100, 2 mM benzamidine, 1 mM PMSF, NEM (50 μg/mL), 1× phosphatase inhibitor cocktail (Roche), and 1× protease inhibitor cocktail (Roche; Basel, Switzerland). […] Immunoreactivity was assessed using SuperSignal West Pico or Femto (Pierce Biotechnology; Waltham, Mass.). […]\nInventories of in vivo apoptotic cleavage events indicate that cleavage specificity in living cells is determined chiefly by an aspartic acid residue at the P1 position; P4-P2 residues contribute far less to specificity in cells than is indicated by in vitro-derived peptide-based substrate profiles. […]"}, "UPF1 [2]": {"test_system": "UPF1", "experiment": "Western blot of UPF1 CP generation in HEK293T cells", "type": "cell-based, human", "conditions": "300 μg/mL CHX or 1 μM staurosporine", "protocol": "(§2) FIG. 10b is essentially as in a, but using lysates of HEK293T cells exposed to 1 μM staurosporine. FIG. 10c is essentially as in a, but using lysates of human Daudi B lymphoblasts exposed to 40 ng/mL TNF-α or 2 μg/mL doxorubicin. FIG. 10d is essentially as in a, but using lysates of human Jurkat T cells exposed to 1 μM staurosporine. FIG. 10e is essentially as in a, but using lysates of canine MDCK cells exposed to 2 μM staurosporine. FIG. 10f is essentially as in a, but using lysates of bovine MDBK cells exposed to 2 μM staurosporine. FIG. 10g is essentially as in a, but using lysates of Chinese Hamster Ovary (CHO) cells exposed to 2 μM staurosporine. FIG. 10h is essentially as in a, but using lysates of African green monkey COS-7 cells exposed to 2 μM staurosporine or 2 μg/mL doxorubicin. At least two apoptotic inducers were used for each cell line, and at least two cell lines were tested with each apoptotic inducer.\nas §1"}, "UPF1 [3]": {"test_system": "UPF1", "experiment": "Western blot of UPF1 CP generation in C2C12 myoblasts", "type": "cell-based, mouse", "conditions": "C2C12, CHX 100 or 300 μg/ml, ETP 100 μM 5 h pulse", "protocol": "CHX concentrations were 100 or 300 μg ml^−1, and a 5 h pulse of ETP was used at 100 μM. At least two apoptotic inducers were used for each cell line, and at least two cell lines were tested with each apoptotic inducer.\n(§3) Cells were lysed, and protein was isolated using hypotonic buffer that consists of 10 mM Tris-C1, pH 7.4, 10 mM NaCl, 2 mM EDTA, 0.5% Triton X-100, 2 mM benzamidine, 1 mM PMSF, NEM (50 μg/mL), 1× phosphatase inhibitor cocktail (Roche), and 1× protease inhibitor cocktail (Roche; Basel, Switzerland). After 10 minutes of incubation at 4° C., NaCl was added to 150 mM, and lysates were cleared by centrifugation. […] Immunoreactivity was assessed using SuperSignal West Pico or Femto (Pierce Biotechnology; Waltham, Mass.)."}, "UPF1 [4]": {"test_system": "UPF1", "experiment": "Western blot of UPF1 CP generation in COS-7 cells", "type": "cell-based, African green monkey", "conditions": "COS-7, 2 μM staurosporine or 2 μg/mL doxorubicin", "protocol": "as §2\n(§4) Cells were lysed, and protein was isolated using hypotonic buffer that consists of 10 mM Tris-C1, pH 7.4, 10 mM NaCl, 2 mM EDTA, 0.5% Triton X-100, 2 mM benzamidine, 1 mM PMSF, NEM (50 μg/mL), 1× phosphatase inhibitor cocktail (Roche), and 1× protease inhibitor cocktail (Roche; Basel, Switzerland). […] Immunoreactivity was assessed using SuperSignal West Pico or Femto (Pierce Biotechnology; Waltham, Mass.)."}, "UPF1 [5]": {"test_system": "UPF1", "experiment": "Western blot of UPF1 CP generation in MDBK cells", "type": "cell-based, bovine", "conditions": "2 μM staurosporine", "protocol": "as §2, §4"}, "UPF1 [6]": {"test_system": "UPF1", "experiment": "Western blot of UPF1 CP generation in Jurkat T cells", "type": "cell-based, human", "conditions": "1 μM staurosporine", "protocol": "as §2, §1"}, "UPF1 [7]": {"test_system": "UPF1", "experiment": "Western blot of UPF1 CP generation in MDCK cells", "type": "cell-based, canine", "conditions": "2 μM staurosporine", "protocol": "as §2, §4"}, "UPF1 [8]": {"test_system": "UPF1", "experiment": "Western blot of UPF1 CP generation in CHO cells", "type": "cell-based, Chinese hamster", "conditions": "2 μM staurosporine", "protocol": "as §2, §4"}, "caspases": {"test_system": "caspases", "experiment": "Caspase inhibitor pre-incubation before CHX, UPF1 CP western blot in HEK293T cells", "type": "cell-based, human", "conditions": "inhibitor preincubated 4 h, then CHX 300 μg/ml", "protocol": "FIG. 3b is a diagram of N-terminally FLAG-tagged human UPF1, showing its reactivity with anti(α)-UPF1(1-416). CH, cysteine-t histidine-rich region. […] Blots are representative of two independent experiments.\nas §3, with “Mass.). […]” for “Mass.).”"}, "UPF1 [9]": {"test_system": "UPF1", "experiment": "Western blot of UPF1 CP generation in Daudi B lymphoblasts", "type": "cell-based, human", "conditions": "40 ng/mL TNF-α or 2 μg/mL doxorubicin", "protocol": "as §2, §1"}, "MYC-UPF1-FLAG WT, Q92900": {"target": "T1, MYC-UPF1-FLAG WT, Q92900", "T1 chain": "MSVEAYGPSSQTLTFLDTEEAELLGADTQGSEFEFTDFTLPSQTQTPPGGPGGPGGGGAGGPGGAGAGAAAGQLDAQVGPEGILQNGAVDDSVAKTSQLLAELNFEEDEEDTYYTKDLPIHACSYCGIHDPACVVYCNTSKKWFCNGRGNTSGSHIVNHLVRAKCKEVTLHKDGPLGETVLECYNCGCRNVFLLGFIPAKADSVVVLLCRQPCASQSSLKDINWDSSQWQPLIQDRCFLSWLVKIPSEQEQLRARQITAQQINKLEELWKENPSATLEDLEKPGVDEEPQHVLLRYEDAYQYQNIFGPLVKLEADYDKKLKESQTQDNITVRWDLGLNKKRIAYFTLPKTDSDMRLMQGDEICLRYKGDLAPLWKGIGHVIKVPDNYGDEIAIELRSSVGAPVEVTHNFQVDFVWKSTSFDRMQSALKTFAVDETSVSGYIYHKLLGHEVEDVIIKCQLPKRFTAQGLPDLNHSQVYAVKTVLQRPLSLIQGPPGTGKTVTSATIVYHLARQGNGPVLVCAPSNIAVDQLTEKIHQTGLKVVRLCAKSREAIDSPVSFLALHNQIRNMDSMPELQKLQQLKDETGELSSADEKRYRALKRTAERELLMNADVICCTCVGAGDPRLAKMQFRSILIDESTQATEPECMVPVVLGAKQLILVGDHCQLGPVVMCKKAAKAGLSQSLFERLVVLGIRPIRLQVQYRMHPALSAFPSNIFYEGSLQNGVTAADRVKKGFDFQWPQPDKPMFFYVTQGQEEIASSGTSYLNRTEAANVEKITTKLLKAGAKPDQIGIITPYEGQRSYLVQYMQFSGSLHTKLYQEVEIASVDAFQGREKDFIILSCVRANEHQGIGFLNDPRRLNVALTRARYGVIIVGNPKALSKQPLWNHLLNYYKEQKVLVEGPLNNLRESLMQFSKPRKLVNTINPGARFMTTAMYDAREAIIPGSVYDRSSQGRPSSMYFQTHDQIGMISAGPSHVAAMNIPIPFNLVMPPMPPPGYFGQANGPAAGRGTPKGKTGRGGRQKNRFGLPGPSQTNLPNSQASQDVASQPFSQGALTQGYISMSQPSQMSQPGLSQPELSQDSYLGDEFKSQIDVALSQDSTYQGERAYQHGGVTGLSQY"}},
  "data": [
    {"molecule": "C[C@@H]1C[C@@H]([C@H](O)CC2CC(=O)NC(=O)C2)C(=O)[C@@H](C)C1", "note": "[CHX, cycloheximide]", "values": [
      {"measurement": "UPF1 CP level relative to uncleaved UPF1", "setting": "UPF1 [1]; HeLa expressing UPF1 WT, D27N or D75N, 300 μg/mL CHX, anti-FLAG immunoblot", "value": "about one-third the level of uncleaved UPF1"},
      {"measurement": "UPF1 CP generation", "setting": "UPF1 [2]", "value": "Generation of the UPF1 CP prior to full CASP9 and CASP3 cleavage"},
      {"measurement": "UPF1 CP generation", "setting": "UPF1 [3]", "value": "generated a UPF1 CP prior to maximal CASP3 cleavage"}
    ]},
    {"molecule": "CN[C@@H]1C[C@H]2O[C@@](C)([C@@H]1OC)n1c3ccccc3c3c4c(c5c6ccccc6n2c5c31)C(=O)NC4", "note": "[staurosporine]", "values": [
      {"measurement": "UPF1 CP generation", "setting": "UPF1 [4]", "value": "yielded a UPF1 CP"},
      {"measurement": "UPF1 CP generation", "setting": "UPF1 [5]", "value": "led to UPF1 CP production"},
      {"measurement": "UPF1 CP generation", "setting": "UPF1 [6]", "value": "yielded a UPF1 CP prior to maximal cleavage of CASP3 or PARP"},
      {"measurement": "UPF1 CP generation", "setting": "UPF1 [7]", "value": "led to UPF1 CP production"},
      {"measurement": "UPF1 CP generation", "setting": "UPF1 [2]", "value": "yielded two UPF1 CPs, prior to full cleavage of CASP9 and CASP3"},
      {"measurement": "UPF1 CP generation", "setting": "UPF1 [8]", "value": "led to UPF1 CP production"}
    ]},
    {"molecule": "COc1cc([C@@H]2c3cc4c(cc3[C@@H](O[C@@H]3O[C@@H]5CO[C@@H](C)O[C@H]5[C@H](O)[C@H]3O)[C@H]3COC(=O)[C@H]23)OCO4)cc(OC)c1O", "note": "[ETP, etoposide]", "values": [
      {"measurement": "UPF1 CP generation", "setting": "UPF1 [1]; HeLa, ETP 44 μM 6 h", "value": "induced generation of a UPF1 CP before full induction of cleaved initiator caspase 9 (CASP9) and cleaved executioner CASP3"},
      {"measurement": "UPF1 CP generation", "setting": "UPF1 [3]", "value": "generated a UPF1 CP prior to maximal CASP3 cleavage"}
    ]},
    {"molecule": "Z-VAD-fmk", "values": [
      {"measurement": "level of UPF1 CP after caspase inhibitor", "setting": "caspases", "value": "nearly undetectable"}
    ]},
    {"molecule": "TNF-α", "values": [
      {"measurement": "UPF1 CP generation", "setting": "UPF1 [9]", "value": "led to generation of the UPF1 CP prior to maximal PARP cleavage"}
    ]},
    {"molecule": "Z-DEVD-fmk", "values": [
      {"measurement": "level of UPF1 CP after caspase inhibitor", "setting": "caspases", "value": "nearly undetectable"}
    ]},
    {"molecule": "B1", "values": [
      {"measurement": "in vitro caspase cleavage, western blot", "setting": "MYC-UPF1-FLAG WT, Q92900", "value": "CASP3 and CASP7 cleaved MYC-UPF1-FLAG WT"}
    ]},
    {"molecule": "B2", "values": [
      {"measurement": "in vitro caspase cleavage, western blot", "setting": "MYC-UPF1-FLAG WT, Q92900", "value": "CASP3 and CASP7 cleaved MYC-UPF1-FLAG WT"}
    ]}
  ]
}
